Assay results as given in ChEMBL document CHEMBL1136464, “Array synthesis of novel lipodepsipeptide” (Bioorg Med Chem Lett, 2003).
In brackets after ≈: the same amount, converted by molar mass.

Columns and labels:
Enterococcus faecium [1] = experiment: Antibacterial activity against Enterococcus faecium ATCC 49452 at 0 % serum; format: functional
Enterococcus faecium [2] = experiment: Antibacterial activity against Enterococcus faecium ATCC 49452 at 10 % serum; format: functional; conditions: ATCC 49452, Serum
Enterococcus faecalis [3] = experiment: Antibacterial activity against Enterococcus faecalis ATCC 6569 at 0 % serum; format: functional
Enterococcus faecalis [4] = experiment: Antibacterial activity against Enterococcus faecalis ATCC 6569 at 10 % serum; format: functional; conditions: ATCC 6569, Serum
Mus musculus = species: Mus musculus; experiment: Protective dose against methicillin-resistant staphylococcus aureus ATCC 43300 was determined in mice; format: functional; conditions: read-out: PD50
Staphylococcus aureus [5] = experiment: Antibacterial activity against methicillin-resistant staphylococcus aureus ATCC 43300 at 10 % serum; format: functional
Staphylococcus aureus [6] = experiment: Antibacterial activity against methicillin susceptible staphylococcus aureus ATCC 29213 at 0 % serum; format: functional
Staphylococcus aureus [7] = experiment: Antibacterial activity against methicillin susceptible staphylococcus aureus ATCC 29213 at 10 % serum; format: functional
Staphylococcus aureus [8] = experiment: Antibacterial activity against methicillin-resistant staphylococcus aureus ATCC 43300 at 0 % serum; format: functional
Enterococcus faecium [9] = experiment: Antibacterial activity against Enterococcus faecium ATCC 49452; format: functional
Enterococcus faecalis [10] = experiment: Antibacterial activity against Enterococcus faecalis ATCC 6569; format: functional
Staphylococcus aureus [11] = experiment: Antibacterial activity against methicillin susceptible staphylococcus aureus ATCC 29213; format: functional
Staphylococcus aureus [12] = experiment: Antibacterial activity against methicillin-resistant staphylococcus aureus ATCC 43300; format: functional
[13] = Vd in mice; format: ADME, organism-based; conditions: mouse, in vivo
[14] = Total plasma clearance in mice; format: ADME, organism-based; conditions: mouse
[15] = Half-life in mice; format: ADME, organism-based; conditions: mouse, in vivo
Enterococcus faecium [16] = experiment: Antibacterial activity against Enterococcus faecium ATCC 49452 at 10 % serum in mice; format: functional; conditions: ATCC 49452, Serum
Enterococcus faecalis [17] = experiment: Antibacterial activity against Enterococcus faecalis ATCC 6569 at 0 % serum in mice; format: functional
Enterococcus faecalis [18] = experiment: Antibacterial activity against Enterococcus faecalis ATCC 6569 at 10 % serum in mice; format: functional
Staphylococcus aureus [19] = experiment: Antibacterial activity against methicillin-resistant staphylococcus aureus ATCC 43300 at 10 % serum in mice; format: functional
Staphylococcus aureus [20] = experiment: Antibacterial activity against methicillin-resistant staphylococcus aureus ATCC 43300 at 0 % serum in mice; format: functional
Enterococcus faecium [21] = experiment: Antibacterial activity against Enterococcus faecium ATCC 49452 at 0 % serum in mice; format: functional

Row | SMILES | MIC (Enterococcus faecium [1]) [µg/mL] | MIC (Enterococcus faecium [2]) [µg/mL] | MIC (Enterococcus faecalis [3]) [µg/mL] | MIC (Enterococcus faecalis [4]) [µg/mL] | MIC (Staphylococcus aureus [5]) [µg/mL] | MIC (Staphylococcus aureus [6]) [µg/mL] | MIC (Staphylococcus aureus [7]) [µg/mL] | MIC (Staphylococcus aureus [8]) [µg/mL] | MIC (Enterococcus faecium [9]) [µg/mL] | MIC (Enterococcus faecalis [10]) [µg/mL] | further results
1 | CCCCCCCCCC(=O)N[C@@H](Cc1c[nH]c2ccccc12)C(=O)N[C@H](CC(N)=O)C(=O)N[C@@H](CC(=O)O)C(=O)N[C@@H]1C(=O)NCC(=O)N[C@@H](CCCNCc2ccc(-c3ccccc3)cc2)C(=O)N[C@@H](CC(=O)O)C(=O)N[C@H](C)C(=O)N[C@@H](CC(=O)O)C(=O)NCC(=O)N[C@H](CO)C(=O)N[C@@H]([C@H](C)CC(=O)O)C(=O)N[C@@H](CC(=O)c2ccccc2N)C(=O)O[C@@H]1C [listing 1 of 2 here] | 1.56 (≈ 0.873 µM) | 25 (≈ 14 µM) | 1.56 (≈ 0.873 µM) | 12.5 (≈ 7 µM) | 1.56 (≈ 0.873 µM) | 0.39 (≈ 0.218 µM) | 3.13 (≈ 1.75 µM) | 0.2 (≈ 0.112 µM) | – | – | ED50 (Mus musculus): 1.04 mg/kg
2 | CCCCCCCCCC(=O)N[C@@H](Cc1c[nH]c2ccccc12)C(=O)N[C@H](CC(N)=O)C(=O)N[C@@H](CCO)C(=O)N[C@@H]1C(=O)NCC(=O)N[C@@H](CCCNC(=O)c2ccccc2S(=O)(=O)O)C(=O)N[C@@H](CC(=O)O)C(=O)N[C@H](C)C(=O)N[C@@H](CC(=O)O)C(=O)NCC(=O)N[C@H](CO)C(=O)N[C@@H]([C@H](C)CC(=O)O)C(=O)N[C@@H](CC(=O)c2ccccc2N)C(=O)O[C@@H]1C | – | – | – | – | – | – | – | – | 100 (≈ 55.8 µM) | 100 (≈ 55.8 µM) | MIC (Staphylococcus aureus [11]): 100 µg/mL (≈ 55.8 µM); MIC (Staphylococcus aureus [12]): 100 µg/mL (≈ 55.8 µM)
3 | CCCCCCCCCC(=O)N[C@@H](Cc1c[nH]c2ccccc12)C(=O)N[C@H](CC(N)=O)C(=O)N[C@@H](CC(=O)O)C(=O)N[C@@H]1C(=O)NCC(=O)N[C@@H](CCCNCc2ccc(-c3ccccc3)cc2)C(=O)N[C@@H](CC(=O)O)C(=O)N[C@H](C)C(=O)N[C@@H](CC(=O)O)C(=O)NCC(=O)N[C@H](CO)C(=O)N[C@@H]([C@H](C)CC(=O)O)C(=O)N[C@@H](CC(=O)c2ccccc2N)C(=O)O[C@@H]1C [listing 2 of 2 here] | – | – | – | – | – | – | – | – | – | – | Vd [13]: 0.107 L/kg; clearance [14]: 0.157 mL/min/kg; half-life [15]: 7.9 h
4 | CCCCCCCCCC(=O)N[C@@H](Cc1c[nH]c2ccccc12)C(=O)N[C@H](CC(N)=O)C(=O)N[C@@H](CC(=O)O)C(=O)N[C@@H]1C(=O)NCC(=O)N[C@@H](CCCN)C(=O)N[C@@H](CC(=O)O)C(=O)N[C@H](C)C(=O)N[C@@H](CC(=O)O)C(=O)NCC(=O)N[C@H](CO)C(=O)N[C@@H]([C@H](C)CC(=O)O)C(=O)N[C@@H](CC(=O)c2ccccc2N)C(=O)O[C@@H]1C | – | – | – | – | – | – | – | – | – | – | MIC (Enterococcus faecium [16]): 1.56 µg/mL (≈ 0.963 µM); MIC (Enterococcus faecalis [17]): 1.56 µg/mL (≈ 0.963 µM); MIC (Enterococcus faecalis [18]): 3.13 µg/mL (≈ 1.93 µM); MIC (Staphylococcus aureus [19]): 0.78 µg/mL (≈ 0.481 µM); MIC (Staphylococcus aureus [20]): 0.78 µg/mL (≈ 0.481 µM); MIC (Enterococcus faecium [21]): 1.56 µg/mL (≈ 0.963 µM)
5 | CCCCCCCCCC(=O)N[C@@H](Cc1c[nH]c2ccccc12)C(=O)N[C@H](CC(N)=O)C(=O)N[C@@H](CCO)C(=O)N[C@@H]1C(=O)NCC(=O)N[C@@H](CCCNC(=O)c2ccccc2N)C(=O)N[C@@H](CC(=O)O)C(=O)N[C@H](C)C(=O)N[C@@H](CC(=O)O)C(=O)NCC(=O)N[C@H](CO)C(=O)N[C@@H]([C@H](C)CC(=O)O)C(=O)N[C@@H](CC(=O)c2ccccc2N)C(=O)O[C@@H]1C | – | – | – | – | – | – | – | – | 12.5 (≈ 7.24 µM) | 3.1 (≈ 1.8 µM) | MIC (Staphylococcus aureus [11]): 1.56 µg/mL (≈ 0.904 µM); MIC (Staphylococcus aureus [12]): 0.78 µg/mL (≈ 0.452 µM)
6 | CCCCCCCCCC(=O)N[C@@H](Cc1c[nH]c2ccccc12)C(=O)N[C@H](CC(N)=O)C(=O)N[C@@H](CCO)C(=O)N[C@@H]1C(=O)NCC(=O)N[C@@H](CCCNC(=O)C(N)Cc2c[nH]c3ccc(F)cc23)C(=O)N[C@@H](CC(=O)O)C(=O)N[C@H](C)C(=O)N[C@@H](CC(=O)O)C(=O)NCC(=O)N[C@H](CO)C(=O)N[C@@H]([C@H](C)CC(=O)O)C(=O)N[C@@H](CC(=O)c2ccccc2N)C(=O)O[C@@H]1C (stereo partly drawn) | – | – | – | – | – | – | – | – | 12.5 (≈ 6.9 µM) | 3.1 (≈ 1.71 µM) | –
7 | CCCCCCCCCC(=O)N[C@@H](Cc1c[nH]c2ccccc12)C(=O)N[C@H](CC(N)=O)C(=O)N[C@@H](CCO)C(=O)N[C@@H]1C(=O)NCC(=O)N[C@@H](CCCNC(=O)c2c(N)cccc2F)C(=O)N[C@@H](CC(=O)O)C(=O)N[C@H](C)C(=O)N[C@@H](CC(=O)O)C(=O)NCC(=O)N[C@H](CO)C(=O)N[C@@H]([C@H](C)CC(=O)O)C(=O)N[C@@H](CC(=O)c2ccccc2N)C(=O)O[C@@H]1C | – | – | – | – | – | – | – | – | 3.1 (≈ 1.78 µM) | 3.1 (≈ 1.78 µM) | –
8 | CCCCCCCCCC(=O)N[C@@H](Cc1c[nH]c2ccccc12)C(=O)N[C@H](CC(N)=O)C(=O)N[C@@H](CCO)C(=O)N[C@@H]1C(=O)NCC(=O)N[C@@H](CCCNC(=O)c2ccccc2)C(=O)N[C@@H](CC(=O)O)C(=O)N[C@H](C)C(=O)N[C@@H](CC(=O)O)C(=O)NCC(=O)N[C@H](CO)C(=O)N[C@@H]([C@H](C)CC(=O)O)C(=O)N[C@@H](CC(=O)c2ccccc2N)C(=O)O[C@@H]1C | – | – | – | – | – | – | – | – | 25 (≈ 14.6 µM) | 25 (≈ 14.6 µM) | MIC (Staphylococcus aureus [11]): 12.5 µg/mL (≈ 7.31 µM); MIC (Staphylococcus aureus [12]): 6.25 µg/mL (≈ 3.65 µM)
9 | CCCCCCCCCC(=O)N[C@@H](Cc1c[nH]c2ccccc12)C(=O)N[C@H](CC(N)=O)C(=O)N[C@@H](CCO)C(=O)N[C@@H]1C(=O)NCC(=O)N[C@@H](CCCNCc2ccc(F)cc2F)C(=O)N[C@@H](CC(=O)O)C(=O)N[C@H](C)C(=O)N[C@@H](CC(=O)O)C(=O)NCC(=O)N[C@H](CO)C(=O)N[C@@H]([C@H](C)CC(=O)O)C(=O)N[C@@H](CC(=O)c2ccccc2N)C(=O)O[C@@H]1C | 6.25 (≈ 3.61 µM) | 25 (≈ 14.4 µM) | 6.25 (≈ 3.61 µM) | 12.5 (≈ 7.21 µM) | 0.78 (≈ 0.45 µM) | 1.56 (≈ 0.9 µM) | 3.13 (≈ 1.81 µM) | 0.78 (≈ 0.45 µM) | – | – | –
10 | CCCCCCCCCC(=O)N[C@@H](Cc1c[nH]c2ccccc12)C(=O)N[C@H](CC(N)=O)C(=O)N[C@@H](CCO)C(=O)N[C@@H]1C(=O)NCC(=O)N[C@@H](CCCNCc2ccc(OCc3ccccc3)cc2)C(=O)N[C@@H](CC(=O)O)C(=O)N[C@H](C)C(=O)N[C@@H](CC(=O)O)C(=O)NCC(=O)N[C@H](CO)C(=O)N[C@@H]([C@H](C)CC(=O)O)C(=O)N[C@@H](CC(=O)c2ccccc2N)C(=O)O[C@@H]1C | 3.13 (≈ 1.74 µM) | 25 (≈ 13.9 µM) | 1.56 (≈ 0.865 µM) | 12.5 (≈ 6.93 µM) | 6.25 (≈ 3.47 µM) | 0.78 (≈ 0.433 µM) | 6.25 (≈ 3.47 µM) | 0.78 (≈ 0.433 µM) | – | – | –
11 | CCCCCCCCCC(=O)N[C@@H](Cc1c[nH]c2ccccc12)C(=O)N[C@H](CC(N)=O)C(=O)N[C@@H](CCO)C(=O)N[C@@H]1C(=O)NCC(=O)N[C@@H](CCCNCc2ccc(S(=O)(=O)NCc3ccc(F)cc3)cc2)C(=O)N[C@@H](CC(=O)O)C(=O)N[C@H](C)C(=O)N[C@@H](CC(=O)O)C(=O)NCC(=O)N[C@H](CO)C(=O)N[C@@H]([C@H](C)CC(=O)O)C(=O)N[C@@H](CC(=O)c2ccccc2N)C(=O)O[C@@H]1C | 1.56 (≈ 0.828 µM) | 6.25 (≈ 3.32 µM) | 1.56 (≈ 0.828 µM) | 3.13 (≈ 1.66 µM) | 0.78 (≈ 0.414 µM) | 0.39 (≈ 0.207 µM) | 1.56 (≈ 0.828 µM) | 0.39 (≈ 0.207 µM) | – | – | –
